Experimental findings from ChEMBL document CHEMBL5260823, “5-Ene-4-thiazolidinones - An efficient tool in medicinal chemistry” (Eur J Med Chem, 2017) are described below.

The nature of experiment [1]: Inhibition of beta-lactamase P99 (unknown origin) using cephalosporin nitrocefin as substrate preincubated for 10 mins followed by substrate addition by spectrophotometric analysis. Also noted: species or system Bacteria.
A short description of experiment [2]: Inhibition of COX-2 in LPS stimulated mouse J774.A1 cells using arachidonic acid as substrate preincubated for 60 mins followed by substrate addition and measured after 30 mins by EIA analysis. In kind it is cell-based.
In the next experiment the target is T1, Lethal factor (Bacillus anthracis, UniProt P15917).
T1 sequence (P15917 whole entry): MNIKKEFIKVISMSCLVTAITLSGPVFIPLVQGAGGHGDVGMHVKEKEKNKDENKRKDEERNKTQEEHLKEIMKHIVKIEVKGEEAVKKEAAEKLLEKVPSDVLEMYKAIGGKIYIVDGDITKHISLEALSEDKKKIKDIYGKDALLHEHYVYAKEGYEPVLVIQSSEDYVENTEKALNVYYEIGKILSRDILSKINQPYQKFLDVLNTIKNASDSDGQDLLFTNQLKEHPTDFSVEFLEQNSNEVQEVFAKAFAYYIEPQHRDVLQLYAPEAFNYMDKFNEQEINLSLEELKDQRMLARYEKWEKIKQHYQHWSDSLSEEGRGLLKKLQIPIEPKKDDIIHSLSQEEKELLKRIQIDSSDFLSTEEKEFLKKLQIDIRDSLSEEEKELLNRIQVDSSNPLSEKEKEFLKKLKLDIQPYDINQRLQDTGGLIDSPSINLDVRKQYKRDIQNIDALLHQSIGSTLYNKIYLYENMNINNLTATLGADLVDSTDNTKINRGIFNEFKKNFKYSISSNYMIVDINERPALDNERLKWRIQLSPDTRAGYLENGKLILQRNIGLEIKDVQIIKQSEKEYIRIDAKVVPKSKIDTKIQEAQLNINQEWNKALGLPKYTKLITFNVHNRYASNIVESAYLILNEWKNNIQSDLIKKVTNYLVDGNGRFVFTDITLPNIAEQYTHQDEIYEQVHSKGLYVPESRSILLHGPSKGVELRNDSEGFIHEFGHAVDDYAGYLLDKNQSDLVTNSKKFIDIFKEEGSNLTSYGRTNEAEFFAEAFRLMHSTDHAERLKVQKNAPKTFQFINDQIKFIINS
Briefly: Inhibition of Bacillus anthracis anthrax lethal factor using MAPKKide as substrate incubated for 30 mins by fluorescence plate reader analysis.

The subject of a further experiment is Plasmodium falciparum. Briefly: Antimalarial activity against chloroquine sensitive Plasmodium falciparum FCR-3 infected in mouse FM3A cells ssessed as reduction in parasite growth. In kind it is functional, organism-based. The settings on record: FCR-3, FM3A.
For experiment [3], the target named is RNA-directed RNA polymerase (Hepacivirus hominis, UniProt O39930). Kind of experiment: Inhibition of Hepatitis C virus NS5B polymerase.
RNA-directed RNA polymerase, sequence (O39930 whole entry): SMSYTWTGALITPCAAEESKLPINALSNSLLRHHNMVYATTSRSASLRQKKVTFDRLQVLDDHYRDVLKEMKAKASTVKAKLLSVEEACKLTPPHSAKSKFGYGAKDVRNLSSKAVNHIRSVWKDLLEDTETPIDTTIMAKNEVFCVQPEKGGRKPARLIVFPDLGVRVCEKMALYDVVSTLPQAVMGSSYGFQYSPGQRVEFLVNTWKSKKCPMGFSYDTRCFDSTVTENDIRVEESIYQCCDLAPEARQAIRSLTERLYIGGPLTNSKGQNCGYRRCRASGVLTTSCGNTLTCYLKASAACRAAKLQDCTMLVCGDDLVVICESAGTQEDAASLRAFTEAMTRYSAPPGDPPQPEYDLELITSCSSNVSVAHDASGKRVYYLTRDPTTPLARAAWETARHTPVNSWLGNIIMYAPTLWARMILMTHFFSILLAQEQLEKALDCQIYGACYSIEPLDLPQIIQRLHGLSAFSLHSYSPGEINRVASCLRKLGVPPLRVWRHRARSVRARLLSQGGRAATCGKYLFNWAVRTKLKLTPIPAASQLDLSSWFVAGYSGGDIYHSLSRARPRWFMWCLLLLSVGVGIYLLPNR
Experiment [4] addresses Dual specificity tyrosine-phosphorylation-regulated kinase 1A (Homo sapiens, UniProt Q13627). Kind of experiment: Inhibition of recombinant human GST-tagged DYRK1A expressed in Escherichia coli using Woodtide as substrate in presence of [gamma-33P] ATP incubated for 30 mins by scintillation counter analysis.
The target of experiment [5] is Serine/threonine-protein kinase PLK1 (Homo sapiens, UniProt P53350). Briefly: Inhibition of full-length His-tagged human PLK1 expressed in baculovirus using biotinylated casein as substrate in presence of [gamma-33P]-ATP by scintillation counter analysis.
Serine/threonine-protein kinase PLK1, sequence (P53350 whole entry): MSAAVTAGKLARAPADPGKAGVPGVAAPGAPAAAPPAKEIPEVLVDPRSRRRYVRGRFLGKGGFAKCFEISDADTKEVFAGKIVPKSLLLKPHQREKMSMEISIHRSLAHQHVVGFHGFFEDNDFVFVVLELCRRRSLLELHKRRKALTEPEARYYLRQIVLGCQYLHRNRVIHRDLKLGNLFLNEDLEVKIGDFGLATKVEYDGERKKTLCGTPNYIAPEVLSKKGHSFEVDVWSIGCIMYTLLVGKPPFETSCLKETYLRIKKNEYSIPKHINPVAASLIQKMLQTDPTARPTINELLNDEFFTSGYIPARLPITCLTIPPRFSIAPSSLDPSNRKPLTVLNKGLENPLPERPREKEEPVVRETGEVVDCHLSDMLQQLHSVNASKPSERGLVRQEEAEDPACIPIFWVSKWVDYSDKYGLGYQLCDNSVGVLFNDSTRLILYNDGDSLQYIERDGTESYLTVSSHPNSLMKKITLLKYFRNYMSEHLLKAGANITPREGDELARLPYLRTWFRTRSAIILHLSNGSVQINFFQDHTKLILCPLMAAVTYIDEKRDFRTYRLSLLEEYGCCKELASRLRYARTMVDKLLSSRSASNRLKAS
The subject of another experiment is MCF7. Kind of experiment: Antiproliferative activity against human MCF7 cells assessed as reduction in cell proliferation incubated for 4 days by crystal violet based assay. The experiment is classed as functional. The note with it: MCF7, 96 h.
A further experiment deals with NCI-H460. Kind of experiment: Antiproliferative activity against human NCI-H460 cells assessed as reduction in cell proliferation incubated for 4 days by crystal violet based assay. In kind it is functional. The note with it: NCI-H460, 96 h.
In another experiment the test system is DU-145. Kind of experiment: Antiproliferative activity against human DU-145 cells assessed as reduction in cell proliferation incubated for 4 days by crystal violet based assay. The note with it: DU-145, 96 h. The experiment is classed as functional.
The subject of the next experiment is HeLa S3. Kind of experiment: Antiproliferative activity against human HeLa S3 cells assessed as reduction in cell proliferation incubated for 4 days by crystal violet based assay. The note with it: HeLa S3, 96 h. The experiment is classed as functional.
The test system of a further experiment is B16-F10. Kind of experiment: Antiproliferative activity against mouse B16-F10 cells assessed as reduction in cell proliferation incubated for 4 days by crystal violet based assay. The note with it: B16-F10, 96 h. The experiment is classed as functional.
The next experiment concerns Caco-2. Briefly: Antiproliferative activity against human Caco-2 cells assessed as reduction in cell proliferation incubated for 4 days by crystal violet based assay. The experiment is classed as functional. The note with it: Caco-2, 96 h.
Experiment [6] concerns the target T2, Peroxisome proliferator-activated receptor alpha (Homo sapiens, UniProt Q07869).
T2 sequence (Q07869 whole entry): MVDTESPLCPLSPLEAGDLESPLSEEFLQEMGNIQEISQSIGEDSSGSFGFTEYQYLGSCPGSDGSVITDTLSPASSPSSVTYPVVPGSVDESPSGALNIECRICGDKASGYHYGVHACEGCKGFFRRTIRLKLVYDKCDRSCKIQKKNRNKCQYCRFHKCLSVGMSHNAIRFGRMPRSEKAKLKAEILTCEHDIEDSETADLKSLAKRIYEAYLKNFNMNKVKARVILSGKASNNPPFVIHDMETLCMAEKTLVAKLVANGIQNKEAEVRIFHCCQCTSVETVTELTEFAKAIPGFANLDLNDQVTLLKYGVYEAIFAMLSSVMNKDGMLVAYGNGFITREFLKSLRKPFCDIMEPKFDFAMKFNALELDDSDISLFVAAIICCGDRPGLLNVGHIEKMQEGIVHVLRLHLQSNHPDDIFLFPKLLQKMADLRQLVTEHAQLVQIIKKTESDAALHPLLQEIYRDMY
Kind of experiment: Agonist activity against PPAR-alpha (unknown origin).

As to `O=C1NC(=S)S/C1=C1\C(=O)Nc2ccccc21`, the midpoint of inhibition in [1], the IC50, lay at 2600 µM.

In the case of `CONC1=NC(=O)/C(=C/c2cc(C(C)(C)C)c(O)c(C(C)(C)C)c2)S1`, the IC50 (as a rule, the concentration at which inhibition is half-maximal) in experiment [2] was determined as 0.17 µM.

On Lethal factor, `O=C(O)CN1C(=O)/C(=C/c2ccco2)SC1=S` showed an IC50 of 10 µM.

Regarding `C=CCn1c(=O)/c(=C2\Sc3ccccc3N2C)s/c1=C\c1cccc[n+]1C`, in the experiment on Plasmodium falciparum, the 50% effective concentration (EC50) (usually the concentration needed to bring the measured effect to its halfway point) was determined as 0.012 µM.

For `Cc1ccc(S(=O)(=O)NC2=NC(=O)/C(=C/c3ccc(C)o3)S2)cc1`, the midpoint of inhibition in [3], the IC50, lay at 2 µM.

With `COc1ccc(/C=C2\SC(NCCCN3CCN(CCCNC4=NC(=O)/C(=C/c5ccc(OC)cc5)S4)CC3)=NC2=O)cc1`, the IC50 in experiment [4] worked out at 0.04 µM.

In turn, `CCc1ccc(/C=C2/SC(NC(C(=O)O)c3ccc(F)cc3)=NC2=O)o1` (stereo not given) yielded an IC50 in experiment [3] of 3 µM.

Consider `CCn1c(=O)/c(=C/Nc2cccc(CCN3CCCC3)c2)s/c1=C(\C#N)C(=O)NCC(F)(F)F`, for which the half-maximal inhibitory concentration (IC50) in experiment [5] amounted to 0.019 µM; in the experiment with MCF7 it was 0.2 µM; with NCI-H460, 0.2 µM; in the experiment with DU-145, 0.2 µM; in the experiment on HeLa S3, 0.2 µM; with B16-F10, 0.2 µM. Also, the concentration for half-maximal inhibition (IC50) with Caco-2 turned out to be 0.2 µM.

In experiment [6], `CN(C)c1ccc(/C=C/C=C2\S/C(=N\c3ccccc3)N(Cc3ccc(C(=O)O)cc3)C2=O)cc1` came in with an EC50 of 0.044 µM.
